Experimental data as given in US20210222225A1, “Medium for Disk Diffusion Method to Evaluate Antibiotic Sensitivity” (priority 2018, published 2021).

Experiments:
PAE P1618_R = experiment: Colistin disk diffusion, guanidine hydrochloride medium, P1618_R; assay type: cell-based, Pseudomonas aeruginosa; conditions: 30% agar
Protocol: (§1) A concentration of agar particles (BD Diagnostic, Sparks, Md., USA) in Mueller-Hinton broth medium (BD Diagnostic) was adjusted to 5.1 g/L, which is 30% of 17 g/L, and guanidine hydrochloride was added to a concentration of 500 μg/ml, 50 μg/ml, or 5 μg/ml. Then, solidification was performed. On a surface of each medium thus prepared was evenly inoculated each of colistin-susceptible (S) or -resistant (R) Acinetobacter baumannii (ABA) strain, colistin-susceptible (S) or -resistant (R) Klebsiella pnemoniae (KPN) strain, and colistin-susceptible (S) or -resistant (R) Pseudomonas aeruginosa (PAE) strain, and a colistin disk was placed thereon. Then, pictures of a growth inhibition zone, which had been formed clear, around the disk were taken for each strain, and the results are illustrated in FIGS. 8 to 10.

PAE P1624_R = experiment: Colistin disk diffusion, guanidine hydrochloride medium, P1624_R; assay type: cell-based, Pseudomonas aeruginosa; conditions: 30% agar
Protocol: as §1

ABA A5_R = experiment: Colistin disk diffusion, guanidine hydrochloride medium, A5_R; assay type: cell-based, Acinetobacter baumannii; conditions: 30% agar
Protocol: as §1

[1] = test system: colistin-susceptible strains; experiment: Colistin disk diffusion, colistin-susceptible strains as a group (average, differences); assay type: cell-based; conditions: for Average, diameter (mm) of colistin inhibition zone, colistin-susceptible strains / Difference (S vs ACB-R), diameter (mm) of colistin inhibition zone / Difference (S vs mcr-1), diameter (mm) of colistin inhibition zone: protamine 100 μg/ml
Protocol: (§2) To each MHA thus modified was added protamine (Sigma-Aldrich, St Louis, Mo., USA) at a concentration of 100 μg/ml, and solidification was performed. Then, on a surface of the medium was evenly inoculated each of colistin-susceptible (S) or -resistant (R) Acinetobacter calcoaceticus-baumannii complex (ACB) strain, Pseudomonas aeruginosa ATCC27853 strain, Escherichia coli ATCC25922 strain, and mcr-1-harboring Enterobacter aerogenes strain, and a colistin disk was placed thereon. Subsequently, a diameter of a growth inhibition zone (colistin inhibition zone), which had been formed clear by diffusion of colistin to the agar around the colistin disk, was measured.
As in Example 1, a concentration of agar particles (BD Diagnostic, Sparks, Md., USA) in Mueller-Hinton broth medium (BD Diagnostic) was adjusted to 5.1 g/L, which is 30% of 17 g/L, and protamine (Sigma-Aldrich, St Louis, Mo., USA) was added thereto at a concentration of 150 μg/ml or 100 μg/ml. Then, solidification was performed. To compare effects depending on concentrations of agar and protamine, Muller-Hinton agar medium (BD Diagnostic) containing agar at a concentration of 17 g/L and medium obtained by adding, to the Muller-Hinton agar medium, protamine at a concentration of 100 μg/ml were prepared as controls. On a surface of each medium thus prepared was evenly inoculated each of colistin-susceptible (S) or -resistant (R) Acinetobacter calcoaceticus-baumannii complex (ACB) strain, Pseudomonas aeruginosa ATCC27853 strain, and mcr-1-harboring Enterobacter aerogenes strain, and a colistin disk was placed thereon. Then, it was determined whether each strain was grown, and a diameter of a growth inhibition zone, which had been formed clear around the disk, was measured. The results are illustrated in FIG. 1.
The following four bacterial strains were used to determine conditions for agar: colistin-susceptible (S) or -resistant (R) Acinetobacter calcoaceticus-baumannii complex (ACB) strain (N=2), Pseudomonas aeruginosa ATCC27853 strain, and mcr-1-harboring Enterobacter aerogenes strain. A concentration of agar particles (BD Diagnostic, Sparks, Md., USA) in Mueller-Hinton broth medium (BD Diagnostic) was adjusted to 17 g/L or 5.1 g/L that is 30% of 17 g/L. To each modified MHA was added protamine (Sigma-Aldrich, St Louis, Mo., USA) at a concentration of 100 μg/ml.
On a surface of each medium thus prepared was evenly inoculated each of colistin-susceptible (S) or -resistant (R) Acinetobacter calcoaceticus-baumannii complex (ACB) strain, Pseudomonas aeruginosa ATCC27853 strain, and mcr-1-harboring Enterobacter aerogenes strain, and a colistin disk was placed thereon. Then, it was determined whether each strain was grown, and a diameter of a colistin inhibition zone, which had been formed clear around the disk, was measured. The results are illustrated in FIGS. 2A and 2B. Pictures of an inhibition zone around the disk were taken for each strain, and the results are illustrated in FIGS. 3A, 3B, 4A, 4B, 5A, 5B, 6A and 6B.

ABA A17_S = experiment: Colistin disk diffusion, guanidine hydrochloride medium, A17_S; assay type: cell-based, Acinetobacter baumannii; conditions: 30% agar
Protocol: as §1

PAE P1401_S = experiment: Colistin disk diffusion, guanidine hydrochloride medium, P1401_S; assay type: cell-based, Pseudomonas aeruginosa; conditions: 30% agar
Protocol: as §1

[2] = test system: Escherichia coli ATCC25922 strain; experiment: Colistin disk diffusion on modified Mueller-Hinton agar, ECO; assay type: cell-based; conditions: protamine 100 μg/ml
Protocol: as §2

[3] = guanidine hydrochloride 5 μg/ml
[4] = guanidine hydrochloride 50 μg/ml
[5] = guanidine hydrochloride 500 μg/ml

colistin
Disk diffusion (mm) (PAE P1618_R; [3]): 12 mm
Disk diffusion (mm) (PAE P1618_R; [4]): 13 mm
Disk diffusion (mm) (PAE P1618_R; [5]): 13 mm
Disk diffusion (mm) (PAE P1624_R; [3]): 12 mm
Disk diffusion (mm) (PAE P1624_R; [4]): 12 mm
Disk diffusion (mm) (PAE P1624_R; [5]): 12 mm
Disk diffusion (mm) (ABA A5_R; [3]): 10 mm
Disk diffusion (mm) (ABA A5_R; [4]): 10 mm
Disk diffusion (mm) (ABA A5_R; [5]): 10 mm
Average, diameter (mm) of colistin inhibition zone, colistin-susceptible strains ([1]; 30% agar): 16 mm
Difference (S vs ACB-R), diameter (mm) of colistin inhibition zone ([1]; 30% agar): 5 mm
Difference (S vs mcr-1), diameter (mm) of colistin inhibition zone ([1]; 30% agar): 5 mm
Average, diameter (mm) of colistin inhibition zone, colistin-susceptible strains ([1]; 40% agar): 15 mm
Difference (S vs ACB-R), diameter (mm) of colistin inhibition zone ([1]; 40% agar): 4 mm
Difference (S vs mcr-1), diameter (mm) of colistin inhibition zone ([1]; 40% agar): 5 mm
Average, diameter (mm) of colistin inhibition zone, colistin-susceptible strains ([1]; 50% agar): 14 mm
Difference (S vs ACB-R), diameter (mm) of colistin inhibition zone ([1]; 50% agar): 4 mm
Difference (S vs mcr-1), diameter (mm) of colistin inhibition zone ([1]; 50% agar): 3 mm
Average, diameter (mm) of colistin inhibition zone, colistin-susceptible strains ([1]; 60% agar): 14 mm
Difference (S vs ACB-R), diameter (mm) of colistin inhibition zone ([1]; 60% agar): 1 mm
Difference (S vs mcr-1), diameter (mm) of colistin inhibition zone ([1]; 60% agar): 4 mm
Average, diameter (mm) of colistin inhibition zone, colistin-susceptible strains ([1]; 70% agar): 14 mm
Difference (S vs ACB-R), diameter (mm) of colistin inhibition zone ([1]; 70% agar): 3 mm
Difference (S vs mcr-1), diameter (mm) of colistin inhibition zone ([1]; 70% agar): 4 mm
Average, diameter (mm) of colistin inhibition zone, colistin-susceptible strains ([1]; 80% agar): 13 mm
Difference (S vs ACB-R), diameter (mm) of colistin inhibition zone ([1]; 80% agar): 1 mm
Difference (S vs mcr-1), diameter (mm) of colistin inhibition zone ([1]; 80% agar): 4 mm
Average, diameter (mm) of colistin inhibition zone, colistin-susceptible strains ([1]; 90% agar): 13 mm
Difference (S vs ACB-R), diameter (mm) of colistin inhibition zone ([1]; 90% agar): 1 mm
Difference (S vs mcr-1), diameter (mm) of colistin inhibition zone ([1]; 90% agar): 3 mm
Average, diameter (mm) of colistin inhibition zone, colistin-susceptible strains ([1]; 100% agar): 13 mm
Difference (S vs ACB-R), diameter (mm) of colistin inhibition zone ([1]; 100% agar): 2 mm
Difference (S vs mcr-1), diameter (mm) of colistin inhibition zone ([1]; 100% agar): 3 mm
size of a growth inhibition zone in the colistin-susceptible strains ([1]; agar 5.1 g/L (30%) compared with 17 g/L, FIG. 1): increased
diameter of the growth inhibition zone in the colistin-susceptible strains ([1]; agar 5.1 g/L and protamine 100 μg/ml compared with agar 17 g/L, FIGS. 2A to 6B): remarkably increased
Disk diffusion (mm) (ABA A17_S; [3]): 15 mm
Disk diffusion (mm) (ABA A17_S; [4]): 15 mm
Disk diffusion (mm) (ABA A17_S; [5]): 15 mm
Disk diffusion (mm) (PAE P1401_S; [3]): 16 mm
Disk diffusion (mm) (PAE P1401_S; [4]): 15 mm
Disk diffusion (mm) (PAE P1401_S; [5]): 16 mm
Diameter (mm) of colistin inhibition zone ([2]; 30% agar): 16 mm
Diameter (mm) of colistin inhibition zone ([2]; 40% agar): 14 mm
Diameter (mm) of colistin inhibition zone ([2]; 50% agar): 14 mm
Diameter (mm) of colistin inhibition zone ([2]; 60% agar): 14 mm
Diameter (mm) of colistin inhibition zone ([2]; 70% agar): 14 mm
Diameter (mm) of colistin inhibition zone ([2]; 80% agar): 14 mm
Diameter (mm) of colistin inhibition zone ([2]; 90% agar): 13 mm
Diameter (mm) of colistin inhibition zone ([2]; 100% agar): 13 mm
